Laboratory results: PubChem BioAssay (NCI)
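Where inhibition never reached the appropriate level, the endpoint shown equals the highest concentration tested. Otherwise, values were interpolated linearly from a five-concentration, 48-hour dose response in 96-well plates. Abbreviation: GI50, concentration required for 50% inhibition of growth. TGI is the concentration that stops growth completely.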

What was measured:
Test in all cases: NCI-60 cell line screen, 48 h
786-0 renal = system: 786-0 renal
A498 renal = system: A498 renal
A549 NSCLC = system: A549 NSCLC
ACHN renal = system: ACHN renal
BT-549 breast = system: BT-549 breast
CAKI-1 renal = system: CAKI-1 renal
CCRF-CEM leukemia = system: CCRF-CEM leukemia
COLO 205 colon = system: COLO 205 colon
DU-145 prostate = system: DU-145 prostate
EKVX NSCLC = system: EKVX NSCLC
HCC-2998 colon = system: HCC-2998 colon
HCT-116 colon = system: HCT-116 colon
HCT-15 colon = system: HCT-15 colon
HL-60(TB) leukemia = system: HL-60(TB) leukemia
HOP-62 NSCLC = system: HOP-62 NSCLC
HOP-92 NSCLC = system: HOP-92 NSCLC
HS 578T breast = system: HS 578T breast
HT29 colon = system: HT29 colon
IGROV1 ovarian = system: IGROV1 ovarian
K-562 leukemia = system: K-562 leukemia
KM12 colon = system: KM12 colon
LOX IMVI melanoma = system: LOX IMVI melanoma
M14 melanoma = system: M14 melanoma
MALME-3M melanoma = system: MALME-3M melanoma
MCF7 breast = system: MCF7 breast
MDA-MB-231 breast = system: MDA-MB-231 breast
MDA-MB-435 = system: MDA-MB-435
NCI-H226 lung = system: NCI-H226 lung
NCI-H23 lung = system: NCI-H23 lung
NCI-H460 lung = system: NCI-H460 lung
NCI-H522 lung = system: NCI-H522 lung
OVCAR-3 ovarian = system: OVCAR-3 ovarian
OVCAR-4 ovarian = system: OVCAR-4 ovarian
OVCAR-5 ovarian = system: OVCAR-5 ovarian
OVCAR-8 ovarian = system: OVCAR-8 ovarian
PC-3 prostate = system: PC-3 prostate
RPMI-8226 leukemia = system: RPMI-8226 leukemia
RXF 393 renal = system: RXF 393 renal
SF-295 CNS = system: SF-295 CNS
SF-539 CNS = system: SF-539 CNS
SK-MEL-2 melanoma = system: SK-MEL-2 melanoma
SK-MEL-28 melanoma = system: SK-MEL-28 melanoma
SK-MEL-5 melanoma = system: SK-MEL-5 melanoma
SK-OV-3 ovarian = system: SK-OV-3 ovarian
SN12C renal = system: SN12C renal
SNB-19 CNS = system: SNB-19 CNS
SNB-75 CNS = system: SNB-75 CNS
SW-620 colon = system: SW-620 colon
T-47D breast = system: T-47D breast
TK-10 renal = system: TK-10 renal
U251 CNS = system: U251 CNS
UACC-257 melanoma = system: UACC-257 melanoma
UACC-62 melanoma = system: UACC-62 melanoma
UO-31 renal = system: UO-31 renal

CSc1nc(-c2cccc(NC(=O)CCl)c2)c(C#N)c(=O)n1C
GI50 (786-0 renal): 1750 nM
TGI (786-0 renal): 3450 nM
GI50 (A498 renal): 5510 nM
TGI (A498 renal): 32900 nM
GI50 (A549 NSCLC): 3280 nM
TGI (A549 NSCLC): 17400 nM
GI50 (ACHN renal): 1030 nM
TGI (ACHN renal): 2220 nM
GI50 (BT-549 breast): 1510 nM
TGI (BT-549 breast): 3020 nM
GI50 (CAKI-1 renal): 1680 nM
TGI (CAKI-1 renal): 3070 nM
GI50 (CCRF-CEM leukemia): 98.9 nM
TGI (CCRF-CEM leukemia): 9370 nM
GI50 (COLO 205 colon): 1700 nM
TGI (COLO 205 colon): 3940 nM
GI50 (DU-145 prostate): 1770 nM
TGI (DU-145 prostate): 3440 nM
GI50 (EKVX NSCLC): 1880 nM
TGI (EKVX NSCLC): 3650 nM
GI50 (HCC-2998 colon): 1960 nM
TGI (HCC-2998 colon): 3800 nM
GI50 (HCT-116 colon): 621 nM
TGI (HCT-116 colon): 4070 nM
GI50 (HCT-15 colon): 1270 nM
TGI (HCT-15 colon): 2880 nM
GI50 (HL-60(TB) leukemia): 1810 nM
TGI (HL-60(TB) leukemia): 4880 nM
GI50 (HOP-62 NSCLC): 2160 nM
TGI (HOP-62 NSCLC): 4870 nM
GI50 (HOP-92 NSCLC): 1750 nM
TGI (HOP-92 NSCLC): 3380 nM
GI50 (HS 578T breast): 2330 nM
TGI (HS 578T breast): 7450 nM
GI50 (HT29 colon): 1680 nM
TGI (HT29 colon): 3900 nM
GI50 (IGROV1 ovarian): 248 nM
TGI (IGROV1 ovarian): 1410 nM
GI50 (K-562 leukemia): 1280 nM
TGI (K-562 leukemia): > 100000 nM
GI50 (KM12 colon): 1820 nM
TGI (KM12 colon): 3540 nM
GI50 (LOX IMVI melanoma): 18.4 nM
TGI (LOX IMVI melanoma): 34.2 nM
GI50 (M14 melanoma): 1780 nM
TGI (M14 melanoma): 5610 nM
GI50 (MALME-3M melanoma): 1170 nM
TGI (MALME-3M melanoma): 2660 nM
GI50 (MCF7 breast): 240 nM
TGI (MCF7 breast): 2390 nM
GI50 (MDA-MB-231 breast): 1600 nM
TGI (MDA-MB-231 breast): 3380 nM
GI50 (MDA-MB-435): 2060 nM
TGI (MDA-MB-435): 5980 nM
GI50 (NCI-H226 lung): 3650 nM
TGI (NCI-H226 lung): 44300 nM
GI50 (NCI-H23 lung): 1460 nM
TGI (NCI-H23 lung): 3010 nM
GI50 (NCI-H460 lung): 3160 nM
TGI (NCI-H460 lung): 11100 nM
GI50 (NCI-H522 lung): 1120 nM
TGI (NCI-H522 lung): 3210 nM
GI50 (OVCAR-3 ovarian): 1700 nM
TGI (OVCAR-3 ovarian): 3200 nM
GI50 (OVCAR-4 ovarian): 1430 nM
TGI (OVCAR-4 ovarian): 3320 nM
GI50 (OVCAR-5 ovarian): 1830 nM
TGI (OVCAR-5 ovarian): 3380 nM
GI50 (OVCAR-8 ovarian): 2430 nM
TGI (OVCAR-8 ovarian): > 100000 nM
GI50 (PC-3 prostate): 2400 nM
TGI (PC-3 prostate): 8120 nM
GI50 (RPMI-8226 leukemia): 1750 nM
TGI (RPMI-8226 leukemia): 4880 nM
GI50 (RXF 393 renal): 1540 nM
TGI (RXF 393 renal): 3030 nM
GI50 (SF-295 CNS): 1700 nM
TGI (SF-295 CNS): 3220 nM
GI50 (SF-539 CNS): 1470 nM
TGI (SF-539 CNS): 2880 nM
GI50 (SK-MEL-2 melanoma): 2170 nM
TGI (SK-MEL-2 melanoma): 7080 nM
GI50 (SK-MEL-28 melanoma): 2850 nM
TGI (SK-MEL-28 melanoma): 9580 nM
GI50 (SK-MEL-5 melanoma): 1330 nM
TGI (SK-MEL-5 melanoma): 2740 nM
GI50 (SK-OV-3 ovarian): 12500 nM
TGI (SK-OV-3 ovarian): 48100 nM
GI50 (SN12C renal): 3050 nM
TGI (SN12C renal): 18100 nM
GI50 (SNB-19 CNS): 1630 nM
TGI (SNB-19 CNS): 3290 nM
GI50 (SNB-75 CNS): 1190 nM
TGI (SNB-75 CNS): 2470 nM
GI50 (SW-620 colon): 1510 nM
TGI (SW-620 colon): 3440 nM
GI50 (T-47D breast): 1710 nM
TGI (T-47D breast): 4190 nM
GI50 (TK-10 renal): 2380 nM
TGI (TK-10 renal): 5530 nM
GI50 (U251 CNS): 1350 nM
TGI (U251 CNS): 3070 nM
GI50 (UACC-257 melanoma): 1600 nM
TGI (UACC-257 melanoma): 6080 nM
GI50 (UACC-62 melanoma): 1500 nM
TGI (UACC-62 melanoma): 3730 nM
GI50 (UO-31 renal): 1470 nM
TGI (UO-31 renal): 2820 nM
